Where a name gives a salt, the structure may show the parent alone. Read-outs that look alike come from different tables or passages of the source.

As usually defined, the CC50 is the concentration giving 50% cytotoxicity. Low values mean harm at low concentration, high ones better tolerance by the cells.

Data set [1] deals with recombinant NL4-3 virus (nef section replaced with Renilla luciferase gene) in MT-2 cells. Description: whole plant or invertebrate. Type of data set: cell-based, HIV. The essentials: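 Nef-deleted NL4-3 reporter virus carrying Renilla luciferase was used to infect MT-2 cells in the presence of serial compound dilutions. After 4-5 days of infection, antiviral activity was quantified from luciferase activity using a live-cell substrate.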

Data set [2] can be described thus: Compound cytotoxicity (CC50), XTT-based colorimetric assay. Type of data set: cell-based. Conditions: human; uninfected MT2 cells, day 4, XTT assay. The essentials:
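Run under the antiviral-assay protocol but without virus. Viability was read on day 4 and CC50 values were derived from the readout.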

[3] abbreviates: NL43, luciferase activity in MT-2 cells infected 4-5 days with recombinant NL4-3 virus, read-out: Activity.
Setting [4] is: NL43, luciferase activity in MT-2 cells infected 4-5 days with recombinant NL4-3 virus, read-out: EC50.

With `Cc1ccccc1S(=O)(=O)NC(=O)N[C@@H](Cc1ccccc1)c1nccn1-c1cccc(OC(F)(F)F)c1` [Example 19, (S)-2-methyl-N-((2-phenyl-1-(1-(3-(trifluoromethoxy)phenyl)-1H-imidazol-2-yl)ethyl)carbamoyl)benzenesulfonamide], the EC50 in data set [1] (setting [3]) was in the range of 100 to 1000 nM. In data set [2], this compound gave a CC50 at 4 day of more than 33 µM.
As for `COC(=O)Nc1ccc(-n2ccnc2[C@H](Cc2ccccc2)NC(=O)NS(=O)(=O)Cc2cccc(Cl)c2)cc1` [Example 48, (S)-methyl (4-(2-(1-(3-((3-chlorobenzyl)sulfonyl)ureido)-2-phenylethyl)-1H-imidazol-1-yl)phenyl)carbamate], the results for the EC50 in data set [1] (setting [3]) and in data set [1] (setting [4]) were less than 100 nM and 70 nM, respectively. Also, the CC50 at 4 day in data set [2] was more than 100 µM.
Consider `Cc1ccccc1S(=O)(=O)NC(=O)N[C@@H](Cc1cc(F)cc(F)c1)c1ncccc1-c1ccc(-c2cccs2)cc1` [Example 125, (S)-N-((2-(3,5-difluorophenyl)-1-(3-(4-(thiophen-2-yl)phenyl)pyridin-2-yl)ethyl)carbamoyl)-2-methylbenzenesulfonamide, TFA], for which the EC50 in data set [1] (setting [3]) is more than 1000 nM. Also, in data set [2], the midpoint of cytotoxicity, the CC50 at 4 day, lay at 38 µM.
In the same order, the values of `Cc1ccccc1-n1ccnc1[C@H](Cc1ccccc1)NC(=O)NS(=O)(=O)c1ccccc1C` [Example 28, (S)-2-methyl-N-((2-phenyl-1-(1-(o-tolyl)-1H-imidazol-2-yl)ethyl)carbamoyl)benzenesulfonamide] are more than 1000 nM and more than 100 µM.
As for `COC(=O)Nc1ccc(-n2ccnc2[C@@H](Cc2ccccc2)NC(=O)NS(=O)(=O)c2ccccc2C)cc1` [Example 39], the EC50 was more than 1000 nM in data set [1] (setting [3]) and 1420 nM in data set [1] (setting [4]). The compound also yielded a CC50 at 4 day in data set [2] of more than 11 µM.
For `Cc1ccc2cc(-n3ccnc3[C@H](Cc3ccccc3)NC(=O)NS(=O)(=O)c3ccccc3C)ccc2n1` [Example 67, (S)-2-methyl-N-((1-(1-(2-methylquinolin-6-yl)-1H-imidazol-2-yl)-2-phenylethyl)carbamoyl)benzenesulfonamide], the EC50 in data set [1] (setting [3]) is less than 100 nM. In data set [2], this compound came in with a CC50 at 4 day of more than 100 µM.
With `CCOc1ccc(-c2cccnc2[C@H](Cc2ccccc2)NC(=O)NS(=O)(=O)c2ccccc2C)cc1` [Example 88, (S)-N-((1-(3-(4-ethoxyphenyl)pyridin-2-yl)-2-phenylethyl)carbamoyl)-2-methylbenzenesulfonamide], the EC50 in data set [1] (setting [3]) is 100 to 1000 nM. Further, the CC50 at 4 day in data set [2] is more than 100 µM.
With `COc1ncccc1-c1cccnc1[C@H](Cc1cc(F)cc(F)c1)NC(=O)NS(=O)(=O)c1ccccc1C` [Example 124, (S)-N-((2-(3,5-difluorophenyl)-1-(2′-methoxy-[3,3′-bipyridin]-2-yl)ethyl)carbamoyl)-2-methylbenzenesulfonamide, TFA], the EC50 in data set [1] (setting [3]) was more than 1000 nM. In addition, the CC50 at 4 day in data set [2] is more than 100 µM.
For `Cc1ccccc1S(=O)(=O)NC(=O)NC(Cc1ccccc1)c1ncccc1-c1ccc(F)c(C(N)=O)c1` (stereo not drawn) [Example 98, 2-fluoro-5-(2-(2-phenyl-1-(3-(o-tolylsulfonyl)ureido)ethyl)pyridin-3-yl)benzamide, TFA], in data set [1] (setting [3]), the EC50 was in the range of 100 to 1000 nM. The compound also showed a CC50 at 4 day in data set [2] of more than 33 µM.
Taken in the same sequence, the figures for `Cc1ccccc1S(=O)(=O)NC(=O)N[C@@H](Cc1cc(F)cc(F)c1)c1ncccc1-c1ccc(F)c(C(N)=O)c1` [Example 97, (S)-5-(2-(2-(3,5-difluorophenyl)-1-(3-(o-tolylsulfonyl)ureido)ethyl)pyridin-3-yl)-2-fluorobenzamide, TFA] were 100 to 1000 nM and more than 100 µM.
For the compound `COC(=O)Nc1ccc(-n2ccnc2[C@H](Cc2ccccc2)NC(=O)NS(=O)(=O)c2ccccc2C)cc1` [Example 2, (S)-methyl (4-(2-(2-phenyl-1-(3-(o-tolylsulfonyl)ureido)ethyl)-1H-imidazol-1-yl)phenyl)carbamate], the EC50 in data set [1] (setting [3]) is less than 100 nM. In addition, in data set [2], the CC50 at 4 day is more than 100 µM.
In the case of `COC(=O)Nc1ccc(-n2ccnc2[C@H](Cc2ccccc2)NC(=O)NS(=O)(=O)c2cccc(Cl)c2Cl)cc1` [Example 51, (S)-methyl (4-(2-(1-(3-((2,3-dichlorophenyl)sulfonyl)ureido)-2-phenylethyl)-1H-imidazol-1-yl)phenyl)carbamate], the EC50 was 100 to 1000 nM in data set [1] (setting [3]) and 160 nM in data set [1] (setting [4]). Moreover, the CC50 at 4 day in data set [2] is more than 100 µM.
Regarding `COc1ccc(-n2ccnc2[C@H](Cc2ccccc2)NC(=O)NS(=O)(=O)c2ccccc2F)cc1` [Example 58, (S)-2-fluoro-N-((1-(1-(4-methoxyphenyl)-1H-imidazol-2-yl)-2-phenylethyl)carbamoyl)benzenesulfonamide], the EC50 in data set [1] (setting [3]) was less than 100 nM. Besides, in data set [2], the CC50 at 4 day is more than 33 µM.
Regarding `Cc1ccccc1S(=O)(=O)NC(=O)N[C@@H](Cc1ccccc1)c1nccn1-c1cnn(-c2ccccc2)c1` [Example 80, (S)-2-methyl-N-((2-phenyl-1-(1-(1-phenyl-1H-pyrazol-4-yl)-1H-imidazol-2-yl)ethyl)carbamoyl)benzenesulfonamide], the EC50 in data set [1] (setting [3]) was less than 100 nM. The half-maximal cytotoxic concentration (CC50) at 4 day in data set [2] was more than 100 µM.
In the same order, the values of `Cc1ccccc1S(=O)(=O)NC(=O)N[C@@H](Cc1ccccc1)c1nccn1-c1ccc(-c2ccoc2C)cc1` [Example 62, (S)-2-methyl-N-((1-(1-(4-(2-methylfuran-3-yl)phenyl)-1H-imidazol-2-yl)-2-phenylethyl)carbamoyl)benzenesulfonamide] are less than 100 nM and more than 100 µM.
In the same order, the values of `Cc1ccccc1S(=O)(=O)NC(=O)N[C@@H](Cc1cc(F)cc(F)c1)c1ncccc1-c1ccc(C#N)cc1` [Example 128, (S)-N-((1-(3-(4-cyanophenyl)pyridin-2-yl)-2-(3,5-difluorophenyl)ethyl)carbamoyl)-2-methylbenzenesulfonamide, TFA] are more than 1000 nM and 80 µM.
In the same order, the values of `CCCC(=O)Nc1cccc(-n2ccnc2[C@H](Cc2ccccc2)NC(=O)NS(=O)(=O)c2ccccc2C)c1` [Example 79, (S)-N-(3-(2-(2-phenyl-1-(3-(o-tolylsulfonyl)ureido)ethyl)-1H-imidazol-1-yl)phenyl)butyramide] are more than 1000 nM and more than 100 µM.
In the case of `Cc1cc(-c2cccnc2[C@H](Cc2cc(F)cc(F)c2)NC(=O)NS(=O)(=O)c2ccccc2C)c(C)s1` [Example 133, (S)-N-((2-(3,5-difluorophenyl)-1-(3-(2,5-dimethylthiophen-3-yl)pyridin-2-yl)ethyl)carbamoyl)-2-methylbenzenesulfonamide, TFA], the EC50 in data set [1] (setting [3]) was more than 1000 nM. The compound further displayed a CC50 at 4 day in data set [2] of 71 µM.
Regarding `O=C(N[C@H](Cc1cc(F)cc(F)c1)c1ncccc1-c1ccc2ccncc2c1)NS(=O)(=O)c1ccccc1Cl` [Example 99, (R)-2-chloro-N-((2-(3,5-difluorophenyl)-1-(3-(isoquinolin-7-yl)pyridin-2-yl)ethyl)carbamoyl)benzenesulfonamide, 2 TFA], the EC50 in data set [1] (NL43) was 1060 nM; in data set [1] (NL43, read-out: Activity) it was more than 1000 nM. For the same compound, the CC50 at 4 day in data set [2] is more than 33 µM.
For `Cc1ccccc1S(=O)(=O)NC(=O)N[C@@H](Cc1ccccc1)c1nccn1-c1ccc2c(c1)CCO2` [Example 18, (S)-N-((1-(1-(2,3-dihydrobenzofuran-5-yl)-1H-imidazol-2-yl)-2-phenylethyl)carbamoyl)-2-methylbenzenesulfonamide], the figures for the EC50 in data set [1] (setting [3]) and in data set [1] (setting [4]) were less than 100 nM and 10 nM, respectively. Besides, the CC50 at 4 day in data set [2] was more than 100 µM.
With `COC(=O)Nc1ccc(-c2cccnc2[C@H](Cc2cc(F)cc(F)c2)NC(=O)NS(=O)(=O)c2ccccc2Cl)cc1` [Example 91, (S)-methyl (4-(2-(1-(3-((2-chlorophenyl)sulfonyl)ureido)-2-(3,5-difluorophenyl)ethyl)pyridin-3-yl)phenyl)carbamate, TFA], in data set [1] (setting [3]), the EC50 lay within 100 to 1000 nM. Further, the CC50 at 4 day in data set [2] was more than 100 µM.
In the same order, the values of `Cc1ccccc1S(=O)(=O)NC(=O)N[C@@H](Cc1ccccc1)c1nccn1-c1cccc(-c2ccoc2)c1` [Example 65, (S)-N-((1-(1-(3-(furan-3-yl)phenyl)-1H-imidazol-2-yl)-2-phenylethyl)carbamoyl)-2-methylbenzenesulfonamide] are 100 to 1000 nM and more than 100 µM.
On to `Cc1ccccc1S(=O)(=O)NC(=O)N[C@@H](Cc1cc(F)cc(F)c1)c1ncccc1-c1ccc2ccncc2c1` [Example 90, (S)-N-((2-(3,5-difluorophenyl)-1-(3-(isoquinolin-7-yl)pyridin-2-yl)ethyl)carbamoyl)-2-methylbenzenesulfonamide], for which the EC50 is 100 to 1000 nM in data set [1] (setting [3]) and 230 nM in data set [1] (setting [4]). Also, the CC50 at 4 day in data set [2] is more than 100 µM.
Regarding `COC(=O)Nc1ccc(-c2cccnc2C(Cc2ccccc2)NC(=O)NS(=O)(=O)c2ccccc2Cl)cc1` (stereo not drawn) [Example 118, methyl (4-(2-(1-(3-((2-chlorophenyl)sulfonyl)ureido)-2-phenylethyl)pyridin-3-yl)phenyl)carbamate, TFA], in data set [1] (setting [3]), the EC50 was more than 1000 nM. For the same compound, the CC50 at 4 day in data set [2] was more than 100 µM.
Regarding `COc1ccc(-c2ccc(-n3ccnc3[C@H](Cc3ccccc3)NC(=O)NS(=O)(=O)c3ccccc3C)cc2)cn1` [Example 63, (S)-N-((1-(1-(4-(6-methoxypyridin-3-yl)phenyl)-1H-imidazol-2-yl)-2-phenylethyl)carbamoyl)-2-methylbenzenesulfonamide], the EC50 in data set [1] (setting [3]) is 100 to 1000 nM; in data set [1] (setting [4]), 100 nM. In addition, in data set [2], the CC50 at 4 day was more than 100 µM.
Taken in the same sequence, the figures for `Cc1ccccc1S(=O)(=O)NC(=O)N[C@@H](Cc1cc(F)cc(F)c1)c1ncccc1-c1ccnc(F)c1C` [Example 126, (S)-N-((2-(3,5-difluorophenyl)-1-(2′-fluoro-3′-methyl-[3,4′-bipyridin]-2-yl)ethyl)carbamoyl)-2-methylbenzenesulfonamide, TFA] were more than 1000 nM, 1520 nM and more than 33 µM.
